{"source": "paper PMC6576746", "about": "“Rational discovery of dual-indication multi-target PDE/Kinase inhibitor for precision anti-cancer therapy using structural systems pharmacology” (PLoS Computational Biology, 2019)", "assay_in_all_cases": "biochemical", "parameters_in_all_cases": "DiscoverX KinomeScan competition binding assay across human kinases; per cent of control at 10 and 100 uM", "key": {"[1]": {"biological_target": "T1, ABL1(F317I)-phosphorylated (Homo sapiens, UniProt P00519, F317I)", "T1 construct": "phosphorylated", "settings": "competition binding, % of control; read-out: Percent Control (100 uM Levosimendan)", "in_short": "(§1)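 KinomeScan competition binding was run across a human kinase panel at 10 μM and 100 μM levosimendan. Results are %control = (test − positive control)/(negative control − positive control) × 100.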"}, "[2]": {"biological_target": "RET(M918T) (Homo sapiens, UniProt P07949, M918T)", "settings": "competition binding, % of control; read-out: Percent Control (100 uM Levosimendan)", "in_short": "as §1"}, "[3]": {"biological_target": "CDKL3 (Homo sapiens, UniProt Q8IVW4)", "sequence (Q8IVW4 whole entry)": "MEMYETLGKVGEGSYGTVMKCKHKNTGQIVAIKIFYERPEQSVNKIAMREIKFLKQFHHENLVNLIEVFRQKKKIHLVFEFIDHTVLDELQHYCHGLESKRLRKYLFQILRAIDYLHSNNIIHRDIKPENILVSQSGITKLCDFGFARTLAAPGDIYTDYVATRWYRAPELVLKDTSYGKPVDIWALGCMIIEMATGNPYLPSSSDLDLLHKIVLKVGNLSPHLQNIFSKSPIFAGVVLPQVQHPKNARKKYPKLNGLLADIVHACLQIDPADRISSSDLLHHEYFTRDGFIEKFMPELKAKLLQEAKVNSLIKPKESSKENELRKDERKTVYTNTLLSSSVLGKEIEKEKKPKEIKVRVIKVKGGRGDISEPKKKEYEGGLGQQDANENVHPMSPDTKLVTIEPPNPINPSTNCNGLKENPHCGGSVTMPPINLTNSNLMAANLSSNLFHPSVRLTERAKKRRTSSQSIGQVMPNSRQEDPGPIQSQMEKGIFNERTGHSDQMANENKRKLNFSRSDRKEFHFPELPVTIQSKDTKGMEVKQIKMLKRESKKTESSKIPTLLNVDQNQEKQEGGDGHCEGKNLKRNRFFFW", "settings": "competition binding, % of control; read-out: Percent Control (100 uM Levosimendan)", "in_short": "as §1"}, "[4]": {"biological_target": "T2, IKK-epsilon (Homo sapiens, UniProt Q14164)", "T2 construct": "gene IKBKE", "settings": "competition binding, % of control; read-out: Percent Control (100 uM Levosimendan)", "in_short": "as §1"}, "[5]": {"biological_target": "PLK4 (Homo sapiens, UniProt O00444)", "sequence (O00444 whole entry)": "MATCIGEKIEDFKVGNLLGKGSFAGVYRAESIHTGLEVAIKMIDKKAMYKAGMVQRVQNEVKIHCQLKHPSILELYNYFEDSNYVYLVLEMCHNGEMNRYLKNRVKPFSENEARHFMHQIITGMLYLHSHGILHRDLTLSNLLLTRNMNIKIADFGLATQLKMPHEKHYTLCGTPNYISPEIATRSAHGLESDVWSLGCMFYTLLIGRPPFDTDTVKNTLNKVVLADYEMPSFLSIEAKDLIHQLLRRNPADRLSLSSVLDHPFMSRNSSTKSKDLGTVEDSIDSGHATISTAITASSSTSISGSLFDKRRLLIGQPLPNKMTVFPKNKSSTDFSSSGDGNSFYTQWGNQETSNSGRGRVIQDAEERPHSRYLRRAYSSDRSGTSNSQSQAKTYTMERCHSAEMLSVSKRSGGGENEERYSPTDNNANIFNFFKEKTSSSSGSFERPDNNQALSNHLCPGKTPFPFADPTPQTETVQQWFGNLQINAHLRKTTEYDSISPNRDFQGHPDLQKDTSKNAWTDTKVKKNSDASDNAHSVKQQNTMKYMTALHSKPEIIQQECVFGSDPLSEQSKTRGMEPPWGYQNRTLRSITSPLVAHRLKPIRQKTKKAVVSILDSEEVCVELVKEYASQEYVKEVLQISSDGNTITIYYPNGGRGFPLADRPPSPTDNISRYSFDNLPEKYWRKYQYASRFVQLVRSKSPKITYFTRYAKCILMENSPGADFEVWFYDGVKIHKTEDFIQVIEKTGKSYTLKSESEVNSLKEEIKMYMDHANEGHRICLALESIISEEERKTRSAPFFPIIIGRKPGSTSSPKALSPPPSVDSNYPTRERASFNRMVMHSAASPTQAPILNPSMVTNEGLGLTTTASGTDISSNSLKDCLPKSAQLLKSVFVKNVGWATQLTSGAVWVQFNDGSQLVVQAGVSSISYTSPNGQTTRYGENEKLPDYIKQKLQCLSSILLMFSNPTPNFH", "settings": "competition binding, % of control", "in_short": "as §1"}, "[6]": {"biological_target": "MARK1 (Homo sapiens, UniProt Q9P0L2)", "settings": "competition binding, % of control; read-out: Percent Control (100 uM Levosimendan)", "in_short": "as §1"}, "[7]": {"biological_target": "T3, PCTK2 (Homo sapiens, UniProt Q00537)", "T3 construct": "gene CDK17", "settings": "competition binding, % of control; read-out: Percent Control (100 uM Levosimendan)", "in_short": "as §1"}, "[8]": {"biological_target": "BUB1 (Homo sapiens, UniProt O43683)", "sequence (O43683 whole entry)": "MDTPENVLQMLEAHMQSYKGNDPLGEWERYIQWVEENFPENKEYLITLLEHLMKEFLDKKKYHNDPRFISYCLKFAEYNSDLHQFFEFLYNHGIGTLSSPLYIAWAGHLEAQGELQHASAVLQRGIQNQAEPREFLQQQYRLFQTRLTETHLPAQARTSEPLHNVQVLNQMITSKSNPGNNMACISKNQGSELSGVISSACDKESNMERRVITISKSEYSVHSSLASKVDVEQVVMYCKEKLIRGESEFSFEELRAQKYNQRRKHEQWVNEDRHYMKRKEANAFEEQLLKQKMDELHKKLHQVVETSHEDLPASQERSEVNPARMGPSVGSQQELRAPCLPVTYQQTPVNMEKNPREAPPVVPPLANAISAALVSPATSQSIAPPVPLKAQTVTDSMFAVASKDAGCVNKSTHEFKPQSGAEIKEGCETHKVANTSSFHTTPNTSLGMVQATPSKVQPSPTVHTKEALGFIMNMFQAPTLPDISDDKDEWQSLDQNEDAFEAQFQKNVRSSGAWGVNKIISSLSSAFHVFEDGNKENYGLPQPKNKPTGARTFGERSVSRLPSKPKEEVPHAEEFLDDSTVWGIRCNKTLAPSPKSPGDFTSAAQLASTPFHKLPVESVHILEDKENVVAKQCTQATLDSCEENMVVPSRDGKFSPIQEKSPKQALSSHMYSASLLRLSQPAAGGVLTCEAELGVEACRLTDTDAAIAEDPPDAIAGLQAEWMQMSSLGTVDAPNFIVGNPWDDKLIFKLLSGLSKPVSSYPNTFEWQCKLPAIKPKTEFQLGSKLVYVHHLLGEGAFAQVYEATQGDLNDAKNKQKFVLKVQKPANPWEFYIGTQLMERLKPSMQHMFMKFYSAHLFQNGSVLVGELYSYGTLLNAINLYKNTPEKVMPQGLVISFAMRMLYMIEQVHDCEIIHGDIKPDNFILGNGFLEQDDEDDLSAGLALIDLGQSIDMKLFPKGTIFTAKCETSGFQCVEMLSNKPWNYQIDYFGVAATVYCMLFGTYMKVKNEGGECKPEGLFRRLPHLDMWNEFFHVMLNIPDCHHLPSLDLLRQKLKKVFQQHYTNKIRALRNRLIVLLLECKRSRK", "settings": "competition binding, % of control", "in_short": "as §1"}, "[9]": {"biological_target": "TLK1 (Homo sapiens, UniProt Q9UKI8)", "settings": "competition binding, % of control; read-out: Percent Control (100 uM Levosimendan)", "in_short": "as §1"}, "[10]": {"biological_target": "T4, S6K1 (Homo sapiens, UniProt P23443)", "T4 construct": "gene RPS6KB1", "settings": "competition binding, % of control", "in_short": "as §1"}, "[11]": {"biological_target": "PKMYT1 (Homo sapiens, UniProt Q99640)", "sequence (Q99640 whole entry)": "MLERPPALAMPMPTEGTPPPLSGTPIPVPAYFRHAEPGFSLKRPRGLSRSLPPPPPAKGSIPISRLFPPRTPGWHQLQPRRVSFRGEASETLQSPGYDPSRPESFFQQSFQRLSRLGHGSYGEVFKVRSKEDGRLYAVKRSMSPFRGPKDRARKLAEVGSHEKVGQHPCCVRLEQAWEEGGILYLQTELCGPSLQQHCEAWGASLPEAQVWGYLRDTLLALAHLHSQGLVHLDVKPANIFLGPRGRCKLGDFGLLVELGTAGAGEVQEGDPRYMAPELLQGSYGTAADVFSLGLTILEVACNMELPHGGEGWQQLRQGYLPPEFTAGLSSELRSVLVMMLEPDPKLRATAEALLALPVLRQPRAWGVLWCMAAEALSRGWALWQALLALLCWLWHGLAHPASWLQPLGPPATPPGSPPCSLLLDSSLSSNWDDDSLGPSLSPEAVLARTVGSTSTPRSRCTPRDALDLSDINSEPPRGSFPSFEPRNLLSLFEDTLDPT", "settings": "competition binding, % of control; read-out: Percent Control (100 uM Levosimendan)", "in_short": "as §1"}, "[12]": {"biological_target": "T5, JNK3 (Homo sapiens, UniProt P53779)", "T5 construct": "gene MAPK10", "settings": "competition binding, % of control; read-out: Percent Control (100 uM Levosimendan)", "in_short": "as §1"}, "[13]": {"biological_target": "MAP3K3 (Homo sapiens, UniProt Q99759)", "settings": "competition binding, % of control; read-out: Percent Control (100 uM Levosimendan)", "in_short": "as §1"}, "[14]": {"biological_target": "EPHB6 (Homo sapiens, UniProt O15197)", "sequence (O15197 whole entry)": "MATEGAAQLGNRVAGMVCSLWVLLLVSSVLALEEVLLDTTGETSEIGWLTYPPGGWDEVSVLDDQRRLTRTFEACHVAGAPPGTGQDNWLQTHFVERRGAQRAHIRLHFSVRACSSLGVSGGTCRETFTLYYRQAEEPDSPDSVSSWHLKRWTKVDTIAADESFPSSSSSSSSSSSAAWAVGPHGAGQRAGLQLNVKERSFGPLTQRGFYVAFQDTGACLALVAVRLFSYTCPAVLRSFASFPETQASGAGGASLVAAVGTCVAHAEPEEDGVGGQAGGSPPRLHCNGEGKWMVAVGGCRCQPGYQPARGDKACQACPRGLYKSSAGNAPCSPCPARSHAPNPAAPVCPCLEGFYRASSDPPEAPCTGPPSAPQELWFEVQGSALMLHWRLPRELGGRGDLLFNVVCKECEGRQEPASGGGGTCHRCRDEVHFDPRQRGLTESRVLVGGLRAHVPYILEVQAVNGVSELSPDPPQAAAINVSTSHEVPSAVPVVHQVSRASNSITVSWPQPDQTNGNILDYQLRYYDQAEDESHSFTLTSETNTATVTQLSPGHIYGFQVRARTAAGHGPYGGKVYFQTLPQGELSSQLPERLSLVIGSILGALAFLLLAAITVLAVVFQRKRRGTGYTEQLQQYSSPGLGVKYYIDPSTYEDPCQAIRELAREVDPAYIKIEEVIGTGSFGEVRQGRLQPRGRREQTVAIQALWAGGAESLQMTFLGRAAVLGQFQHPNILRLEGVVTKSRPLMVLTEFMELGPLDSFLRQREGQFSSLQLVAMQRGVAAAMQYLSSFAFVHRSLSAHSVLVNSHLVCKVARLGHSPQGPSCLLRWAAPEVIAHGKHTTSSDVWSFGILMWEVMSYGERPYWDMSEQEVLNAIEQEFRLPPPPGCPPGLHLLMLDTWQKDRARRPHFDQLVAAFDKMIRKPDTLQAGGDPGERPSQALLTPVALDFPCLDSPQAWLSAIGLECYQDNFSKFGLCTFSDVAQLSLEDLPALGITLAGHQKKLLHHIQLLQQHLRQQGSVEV", "settings": "competition binding, % of control", "in_short": "as §1"}, "[15]": {"biological_target": "T6, FAK (Homo sapiens, UniProt Q05397)", "T6 construct": "gene PTK2", "settings": "competition binding, % of control; read-out: Percent Control (100 uM Levosimendan)", "in_short": "as §1"}, "[16]": {"biological_target": "TBK1 (Homo sapiens, UniProt Q9UHD2)", "sequence (Q9UHD2 whole entry)": "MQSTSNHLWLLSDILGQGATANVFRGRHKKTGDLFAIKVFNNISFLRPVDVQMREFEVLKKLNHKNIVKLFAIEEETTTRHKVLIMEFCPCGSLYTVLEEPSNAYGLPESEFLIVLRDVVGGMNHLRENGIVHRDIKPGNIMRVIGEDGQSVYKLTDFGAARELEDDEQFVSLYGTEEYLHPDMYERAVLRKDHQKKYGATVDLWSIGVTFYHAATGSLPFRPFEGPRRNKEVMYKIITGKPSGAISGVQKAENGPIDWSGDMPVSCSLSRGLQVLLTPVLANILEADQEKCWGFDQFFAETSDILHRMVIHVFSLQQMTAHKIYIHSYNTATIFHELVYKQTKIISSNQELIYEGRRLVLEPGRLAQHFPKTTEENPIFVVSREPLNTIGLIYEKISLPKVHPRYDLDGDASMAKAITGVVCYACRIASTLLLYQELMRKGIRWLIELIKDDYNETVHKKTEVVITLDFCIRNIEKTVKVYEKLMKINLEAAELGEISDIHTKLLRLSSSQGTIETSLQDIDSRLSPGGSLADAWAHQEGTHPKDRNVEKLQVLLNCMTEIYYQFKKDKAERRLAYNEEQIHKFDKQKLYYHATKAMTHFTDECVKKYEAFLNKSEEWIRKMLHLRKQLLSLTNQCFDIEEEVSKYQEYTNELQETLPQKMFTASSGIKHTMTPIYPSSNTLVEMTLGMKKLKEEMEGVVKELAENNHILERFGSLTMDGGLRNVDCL", "settings": "competition binding, % of control", "in_short": "as §1"}, "[17]": {"biological_target": "PIK3CG (Homo sapiens, UniProt P48736)", "settings": "competition binding, % of control; read-out: Percent Control (100 uM Levosimendan)", "in_short": "as §1"}, "[18]": {"biological_target": "NEK5 (Homo sapiens, UniProt Q6P3R8)", "settings": "competition binding, % of control; read-out: Percent Control (100 uM Levosimendan)", "in_short": "as §1"}, "[19]": {"biological_target": "T7, ABL1(Y253F)-phosphorylated (Homo sapiens, UniProt P00519, Y253F)", "T7 construct": "phosphorylated", "settings": "competition binding, % of control; read-out: Percent Control (100 uM Levosimendan)", "in_short": "as §1"}, "[20]": {"settings": "read-out: Percent Control (10 uM Levosimendan)"}, "[21]": {"settings": "read-out: Percent Control (100 uM Levosimendan)"}}, "data": [{"smiles": "C[C@@H]1CC(=O)NN=C1c1ccc(NN=C(C#N)C#N)cc1", "note": "[levosimendan]", "values": [{"measurement": "remaining binding at 100 µM", "setting": "[1]", "result": 100, "unit": "%"}, {"measurement": "remaining binding at 100 µM", "setting": "[2]", "result": 90, "unit": "%"}, {"measurement": "remaining binding at 100 µM", "setting": "[3]", "result": 100, "unit": "%"}, {"measurement": "remaining binding at 100 µM", "setting": "[4]", "result": 93, "unit": "%"}, {"measurement": "remaining binding at 10 µM", "setting": "[5]; [20]", "result": 100, "unit": "%"}, {"measurement": "remaining binding at 100 µM", "setting": "[5]; [21]", "result": 45, "unit": "%"}, {"measurement": "remaining binding at 100 µM", "setting": "[6]", "result": 85, "unit": "%"}, {"measurement": "remaining binding at 100 µM", "setting": "[7]", "result": 100, "unit": "%"}, {"measurement": "remaining binding at 10 µM", "setting": "[8]; [20]", "result": 94, "unit": "%"}, {"measurement": "remaining binding at 100 µM", "setting": "[8]; [21]", "result": 53, "unit": "%"}, {"measurement": "remaining binding at 100 µM", "setting": "[9]", "result": 100, "unit": "%"}, {"measurement": "remaining binding at 10 µM", "setting": "[10]; [20]", "result": 84, "unit": "%"}, {"measurement": "remaining binding at 100 µM", "setting": "[10]; [21]", "result": 43, "unit": "%"}, {"measurement": "remaining binding at 100 µM", "setting": "[11]", "result": 57, "unit": "%"}, {"measurement": "remaining binding at 100 µM", "setting": "[12]", "result": 99, "unit": "%"}, {"measurement": "remaining binding at 100 µM", "setting": "[13]", "result": 66, "unit": "%"}, {"measurement": "remaining binding at 10 µM", "setting": "[14]; [20]", "result": 56, "unit": "%"}, {"measurement": "remaining binding at 100 µM", "setting": "[14]; [21]", "result": 16, "unit": "%"}, {"measurement": "remaining binding at 100 µM", "setting": "[15]", "result": 89, "unit": "%"}, {"measurement": "remaining binding at 10 µM", "setting": "[16]; [20]", "result": 94, "unit": "%"}, {"measurement": "remaining binding at 100 µM", "setting": "[16]; [21]", "result": 38, "unit": "%"}, {"measurement": "remaining binding at 100 µM", "setting": "[17]", "result": 80, "unit": "%"}, {"measurement": "remaining binding at 100 µM", "setting": "[18]", "result": 86, "unit": "%"}, {"measurement": "remaining binding at 100 µM", "setting": "[19]", "result": 87, "unit": "%"}]}]}
